From US12365687B2 (Hoffmann-La Roche Inc., priority 2021, dated 2025)

How the values were obtained:
[1] = target: human GABAA α2β2γ1 receptor (Homo sapiens (Human), UniProt P47869+Q8N1C3); assay: Radioligand binding assay for γ1-containing GABAA subtypes, [3H]RO7239181 competition (α2β2γ1)
[2] = target: human GABAA α5β2γ1 receptor (Homo sapiens (Human), UniProt P31644+Q8N1C3); assay: Radioligand binding assay for γ1-containing GABAA subtypes, [3H]RO7239181 competition (α5β2γ1)
[3] = target: α2β2γ1 GABAA receptor subtype (Homo sapiens (Human), UniProt P47869+Q8N1C3); assay: Two-electrode voltage clamp electrophysiology in Xenopus oocytes expressing GABAA receptors (modulation of GABA EC20 current); format: cell-based; settings: for Efficacy (GABA)%: % modulation of GABA EC20 = 100*(Fold increase-1), α2β2γ1 oocytes, compound at approx. 30-fold Ki; for Fold increase h-GABA-A α2β2γ1 oocyte @ 30-fold Ki: Xenopus oocytes expressing α2β2γ1, compound at approx. 30-fold its Ki α2β2γ1, GABA EC20 current
In short: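 Two-electrode voltage clamp at −80 mV, room temperature, 3-5 days after mRNA injection into oocytes. GABA applied at EC20 for 1.5 min, twice, with compound during second application; at least 3 oocytes per concentration. Efficacy = extremum of point-by-point current ratio, expressed as 100×(fold increase−1).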

[4] = target: human GABAA α1β3γ2 receptor (Homo sapiens (Human), UniProt P14867+P18507); assay: Radioligand binding assay for γ2-containing GABAA subtypes, [3H]Flumazenil competition (α1β3γ2); settings: for γ2/γ1 Selectivity Ratio: Ki α1β3γ2 (nM)/Ki α2β2γ1 (nM); for LogSel: Log[Ki α1β3γ2 (nM)/Ki α2β2γ1 (nM)]
[5] = Ki h-GABAA α2β2γ1, [3H]RO7239181 competition binding, human GABAA α2β2γ1
[6] = Ki h-GABAA α2β2γ1, displacement of [3H]RO7239181, membranes of HEK293F cells expressing human receptors, means of two determinations

Compound | Ki [1, 5] [µM] | Ki [1, 6] [µM] | Ki [2] [µM] | Efficacy (GABA)% [3] [%] | Fold increase h-GABA-A α2β2γ1 oocyte @ 30-fold Ki [3] | Ki [4] [µM] | γ2/γ1 Selectivity Ratio [4] | LogSel [4]
C[C@@H]1N=C(c2c(F)cccc2F)c2c(ccc(Cl)c2Cl)-n2nc(C#N)nc21 [Example 53, (4S)-7,8-dichloro-6-(2,6-difluorophenyl)-4-methyl-4H-[1,2,4]triazolo[1,5-a][1,4]benzodiazepine-2-carbonitrile] | 0.0614 | 0.0614 | 0.00165 | 73 | 1.73 | 2.55 | 41.5 | 1.62
O=C(c1nc2n(n1)-c1ccc(Cl)c(Cl)c1C(c1c(F)cccc1F)=NC2)N1CCC1 [Example 8, azetidin-1-yl-[7,8-dichloro-6-(2,6-difluorophenyl)-4H-[1,2,4]triazolo[1,5-a][1,4]benzodiazepin-2-yl]methanone] | 0.0082 | 0.0082 | 0.00108 | 98 | 1.98 | 0.368 | 44.7 | 1.65
C[C@@H]1N=C(c2ncccc2F)c2c(ccc(Cl)c2Cl)-n2nc(C(=O)N3CC4(CCCCO4)C3)nc21 [Example 101, [(4S)-7,8-dichloro-6-(3-fluoro-2-pyridyl)-4-methyl-4H-[1,2,4]triazolo[1,5-a][1,4]benzodiazepin-2-yl]-(5-oxa-2-azaspiro[3.5]nonan-2-yl)methanone] | 0.038 | 0.038 | 0.0144 | 97 | 1.97 | 8.68 | 228.3 | 2.36
COC1CN(C(=O)Nc2nc3n(n2)-c2ccc(C(F)(F)F)c(Cl)c2C(c2c(F)cccc2F)=N[C@H]3C)C1 [Example 127, N-[(4S)-7-chloro-6-(2,6-difluorophenyl)-4-methyl-8-(trifluoromethyl)-4H-[1,2,4]triazolo[1,5-a][1,4]benzodiazepin-2-yl]-3-methoxy-azetidine-1-carboxamide] | 0.0494 | 0.0494 | 0.00546 | 112 | 2.12 | 4.76 | 96.5 | 1.98
C[C@@H]1N=C(c2c(F)cccc2F)c2c(ccc(Cl)c2Cl)-n2nc(C(=O)NCC#N)nc21 [Example 56, (4S)-7,8-dichloro-N-(cyanomethyl)-6-(2,6-difluorophenyl)-4-methyl-4H-[1,2,4]triazolo[1,5-a][1,4]benzodiazepine-2-carboxamide] | 0.0046 | 0.00463 | 0.00085 | 72 | 1.72 | 0.432 | 93.4 | 1.97
C[C@@H]1N=C(c2c(F)cccc2F)c2c(ccc(C(F)(F)F)c2Cl)-n2cc(CO)nc21 [Example 149, [(4S)-7-chloro-6-(2,6-difluorophenyl)-4-methyl-8-(trifluoromethyl)-4H-imidazo[1,2-a][1,4]benzodiazepin-2-yl]methanol] | 0.0083 | 0.0083 | 0.00159 | 71 | 1.71 | 1.11 | 134.1 | 2.13
C[C@@H]1N=C(c2ncccc2F)c2c(ccc(C(F)(F)F)c2Cl)-n2nc(NC(=O)NC3CC3)nc21 [Example 143, 1-[(4S)-7-chloro-6-(3-fluoro-2-pyridyl)-4-methyl-8-(trifluoromethyl)-4H-[1,2,4]triazolo[1,5-a][1,4]benzodiazepin-2-yl]-3-cyclopropyl-urea] | 0.0454 | 0.0454 | 0.00735 | 110 | 2.10 | 13.5 | 296.6 | 2.47
C[C@@H]1N=C(c2c(F)cccc2F)c2c(ccc(Cl)c2Cl)-n2nc(N3CCCC3=O)nc21 [Example 50, 1-[(4S)-7,8-dichloro-6-(2,6-difluorophenyl)-4-methyl-4H-[1,2,4]triazolo[1,5-a][1,4]benzodiazepin-2-yl]pyrrolidin-2-one] | 0.0045 | 0.0045 | 0.00089 | 60 | 1.60 | 0.376 | 83.5 | 1.92
C[C@@H]1N=C(c2ncccc2F)c2c(ccc(C(F)(F)F)c2Cl)-n2nc(NC(=O)NC3COC3)nc21 [Example 146, 1-[(4S)-7-chloro-6-(3-fluoro-2-pyridyl)-4-methyl-8-(trifluoromethyl)-4H-[1,2,4]triazolo[1,5-a][1,4]benzodiazepin-2-yl]-3-(oxetan-3-yl)urea] | 0.0361 | 0.0361 | 0.0072 | 111 | 2.11 | 13.1 | 364.3 | 2.56
C[C@@H]1N=C(c2c(F)cccc2F)c2c(ccc(C(F)(F)F)c2Cl)-n2nc(C(=O)NC[C@@H](C)O)nc21 [Example 105, (4S)-7-chloro-6-(2,6-difluorophenyl)-N-[(2R)-2-hydroxypropyl]-4-methyl-8-(trifluoromethyl)-4H-[1,2,4]triazolo[1,5-a][1,4]benzodiazepine-2-carboxamide] | 0.0139 | 0.0139 | 0.00505 | 98 | 1.98 | 5.13 | 368.4 | 2.57
C[C@@H]1N=C(c2ncccc2F)c2c(ccc(Cl)c2Cl)-n2nc(C(=O)N3CC4(CCOCC4)C3)nc21 [Example 95, 7-oxa-2-azaspiro[3.5]nonan-2-yl-[(4S)-7,8-dichloro-6-(3-fluoro-2-pyridyl)-4-methyl-4H-[1,2,4]triazolo[1,5-a][1,4]benzodiazepin-2-yl]methanone] | 0.0476 | 0.0476 | 0.0202 | 126 | 2.26 | 9.44 | 198.4 | 2.30
C[C@@H]1N=C(c2c(F)cccc2F)c2c(ccc(Cl)c2Cl)-n2nc(C(=O)N3CC[C@@H](O)C3)nc21 [Example 47, [(4S)-7,8-dichloro-6-(2,6-difluorophenyl)-4-methyl-4H-[1,2,4]triazolo[1,5-a][1,4]benzodiazepin-2-yl]-[(3R)-3-hydroxypyrrolidin-1-yl]methanone] | 0.0034 | 0.00343 | 0.00144 | 74 | 1.74 | 1.01 | 294.7 | 2.47
CC1CN(C(=O)c2cn3c(n2)[C@H](C)N=C(c2ncccc2F)c2c-3ccc(C(F)(F)F)c2Cl)C1 [Example 163, (3-methylazetidin-1-yl)-[(4S)-7-chloro-6-(3-fluoro-2-pyridyl)-4-methyl-8-(trifluoromethyl)-4H-imidazo[1,2-a][1,4]benzodiazepin-2-yl]methanone] | 0.0871 | 0.101 | 0.0206 | 136 | 2.36 | 13.5 | 134.0 | 2.13
C[C@@H]1N=C(c2c(F)cccc2F)c2c(ccc(Cl)c2Cl)-n2nc(CO)nc21 [Example 13, [(4S)-7,8-dichloro-6-(2,6-difluorophenyl)-4-methyl-4H-[1,2,4]triazolo[1,5-a][1,4]benzodiazepin-2-yl]methanol] | 0.0026 | 0.00258 | 0.0006 | 59 | 1.59 | 0.368 | 142.7 | 2.15
C[C@@H]1N=C(c2c(F)cccc2F)c2c(ccc(Cl)c2Cl)-n2cc(C(=O)N3CC(O)C3)nc21 [Example 68, (3-hydroxyazetidin-1-yl)-[(4S)-7,8-dichloro-6-(2,6-difluorophenyl)-4-methyl-4H-imidazo[1,2-a][1,4]benzodiazepin-2-yl]methanone] | 0.0072 | 0.0072 | 0.00148 | 107 | 2.07 | 0.318 | 44.0 | 1.64
C[C@@H]1N=C(c2ncccc2F)c2c(ccc(Cl)c2Cl)-n2nc(C(=O)N3CC(O)C3)nc21 [Example 44, [(4S)-7,8-dichloro-6-(3-fluoro-2-pyridyl)-4-methyl-4H-[1,2,4]triazolo[1,5-a][1,4]benzodiazepin-2-yl]-(3-hydroxyazetidin-1-yl)methanone] | 0.0259 | 0.0259 | 0.00952 | 133 | 2.33 | 6.62 | 255.1 | 2.41
